Structures can show the parent of a compound that is named as a salt. Where two headings read alike, the source gives them in different places.
Columns and labels:
[1] = test system: acetylated α-tubulin (AcTub) levels in QBI293 cells; set-up: method as in PMID 26980057, PMID 33411523; settings: cited from earlier work; for Class (cellular phenotype): activity reported in previous studies
[2] = test system: total α-tubulin (α-Tub) levels in QBI293 cells; set-up: method as in PMID 26980057, PMID 33411523; settings: 4 h incubation, reported in previous studies, cited from earlier work
[3] = test system: total α-tubulin (α-Tub) levels in QBI293 cells; test: QBI293 cell assay: total α-tubulin ELISA; type: cell-based
Method: (§1) All test compounds were initially screened in the same cell-based (QBI293) assay of MT stabilization used in our previous SAR studies[11],[12] so as to allow direct comparison with literature data. Changes in levels of acetylated α-tubulin (AcTub) and total α-tubulin (α-Tub), relative to vehicle-treated negative control cells, were determined after 4 h of incubation with test compounds at 1 and 10 μM. To account for possible day-to-day differences in the responsiveness of cells to MT-stabilizing treatment, compound-dependent changes in AcTub levels relative to DMSO-treated cells were also normalized to the corresponding changes caused by 100 nM of 5 that was used as a positive control. In addition, docking studies, binding free energy calculations, and in selected cases, molecular dynamic simulations were conducted using an X-ray structure of the vinca and seventh sites (PDB: 5NJH,[10]7CLD[13]). […] For selected compounds, additional studies included testing in the QBI293 cell AcTub assay at additional compound concentrations, and/or evaluation of test compounds for their ability to prevent MT collapse in primary neuron cultures treated with the phosphatase inhibitor, okadaic […] (OA). Finally, cytotoxicity studies in QBI293 and HeLa cells were also conducted for representative examples (Supporting Information).
(§2) Compound-induced changes in acetylated-tubulin and α-tubulin in QBI293 cells or primary mouse or rat neurons were as previously described.[11],[12] […] The plated cells were incubated overnight, after which the medium was aspirated and fresh medium containing vehicle (0.25–0.3% DMSO) or test compound was added. Test compounds were prepared as 4–20 mM stock solutions in 100% DMSO, and these were diluted in culture medium prior to addition to the QBI293 cells. After 4 h incubation, whole-cell extracts were prepared from the QBI293 cells as described[11] and the supernatant fraction from each sample was assessed for protein content by bicinchoninic acid (BCA) assay. The amount of acetyl-tubulin (AcTub) and α-tubulin (αTub) within the cell extract samples was quantified using specific enzyme-linked immunosorbent assays (ELISA), as previously described.[11] Acetyl-tubulin levels were determined in a similar manner in rat or mouse cortical neuron cultures in which embryonic dissociated cortical neurons were plated at 3 × 10^5 cells/well in poly-D-lysine-coated 12-well plates, essentially as previously described.[11] […] Culture homogenates were prepared for the determination of AcTub levels by ELISA as previously described.[11]

[4] = test system: acetylated α-tubulin (AcTub) levels in QBI293 cells; test: QBI293 cell assay of MT stabilization: acetylated α-tubulin ELISA; type: cell-based
Method: as §1, §2

[5] = 4 h incubation, reported in previous studies
[6] = 4 h incubation, 10 μM, reported in previous studies
[7] = 4 h, 1 uM compound, read-out: AlfaTub (1uM)
[8] = 4 h, 10 uM compound, read-out: AlfaTub (10 uM)
[9] = 4 h, 1 uM compound, read-out: AcTub (1uM)
[10] = 4 h, 10 uM compound, read-out: AcTub (10 uM)
[11] = 4 h incubation, 1 μM, read-out: α-Tub 1 μM, fold-change compared to vehicle (DMSO)-treated cells
[12] = 4 h incubation, 10 μM, read-out: α-Tub 10 μM, fold-change compared to vehicle (DMSO)-treated cells
[13] = 4 h incubation, 1 μM, read-out: AcTub 1 μM, fold-change compared to vehicle (DMSO)-treated cells
[14] = 4 h incubation, 10 μM, read-out: AcTub 10 μM, fold-change compared to vehicle (DMSO)-treated cells

Structure (SMILES) | Class (cellular phenotype) [1] | α-Tub 1 μM, fold-change compared to vehicle (DMSO)-treated cells [2] [fold-change] | fold induction at 1 µM [3, 7] | fold induction at 10 µM [3, 8] | AcTub (1 uM - normalized) ([4]; 1 uM compound) | AcTub (10 uM - normalized) ([4]; 10 uM compound) | fold induction at 1 µM [4, 9] | fold induction at 10 µM [4, 10] | further results
CC(C)[C@@H](C)Nc1c(-c2c(F)cc(F)cc2F)c(Cl)nc2ncnn12 [Compound 1] | I |  |  |  |  |  |  |  | 
CC(C)[C@H](C)Nc1c(-c2c(F)cc(F)cc2F)c(Cl)nc2ncnn12 [Compound 7] | I |  |  |  |  |  |  |  | 
CC(C)[C@@H](Nc1c(-c2c(F)cc(F)cc2F)c(Cl)nc2ncnn12)C(F)(F)F [Compound 8] |  | 1.10 ± 0.09 | 1.1 | 0.61 | 0.16 | 0.73 | 2.79 | 13 | AcTub 1 μM, fold-change compared to vehicle (DMSO)-treated cells [1, 5]: 2.79 ± 0.04 fold-change; AcTub 10 μM, fold-change compared to vehicle (DMSO)-treated cells [1, 6]: 13.0 ± 0.54 fold-change
CC(C)[C@H](Nc1c(-c2c(F)cc(F)cc2F)c(Cl)nc2ncnn12)C(F)(F)F [Compound 9] | I | 1.04 ± 0.01 | 1.04 | 1.06 | 0.17 | 0.38 | 3.12 | 6.78 | 
C[C@@H](Nc1c(-c2c(F)cc(F)cc2F)c(Cl)nc2ncnn12)C(C)(C)C [Compound 10] | I |  |  |  |  |  |  |  | 
CC(C)(C)CNc1c(-c2c(F)cc(F)cc2F)c(Cl)nc2ncnn12 [Compound 11] | I | 1.03 ± 0.07 |  |  | 0.30 | 0.71 |  |  | AcTub 1 μM, fold-change compared to positive control compound 5 (100 nM) (in parentheses) [1, 5]: 0.30 fold-change; AcTub 1 μM, fold-change compared to vehicle (DMSO)-treated cells [1, 5]: 2.04 ± 0.11 fold-change; AcTub 10 μM, fold-change compared to vehicle (DMSO)-treated cells [1, 6]: 4.79 ± 0.74 fold-change; AlfaTub (1uM) ([3]; 1 uM compound): 1.03; AlfaTub (10 uM) ([3]; 10 uM compound): 1.06; AcTub (1uM) ([4]; 1 uM compound): 2.04; AcTub (10 uM) ([4]; 10 uM compound): 4.79
C[C@H](Nc1c(-c2c(F)cc(F)cc2F)c(Cl)nc2ncnn12)C(C)(C)C [Compound 12] | I |  |  |  |  |  |  |  | 
C[C@@H](Nc1c(-c2c(F)cc(C#CCN(C)C)cc2F)c(Cl)nc2ncnn12)C(C)(C)C [Compound 55, (R)-5-Chloro-6-(4-(3-(dimethylamino)prop-1-yn-1-yl)-2,6-difluorophenyl)-N-(3,3-dimethylbutan-2-yl)-[1,2,4]triazolo[1,5-a]pyrimidin-7-amine] |  |  | 1 | 0.84 | 0.45 | 1.43 | 1.36 | 4.32 | fold induction at 1 µM [3, 11]: 1 ± 0.05; fold induction at 10 µM [3, 12]: 0.87 ± 0.01; AcTub 1 μM, fold-change compared to positive control compound 5 (100 nM) (in parentheses) ([4]; 4 h incubation, 1 μM): 0.45 fold-change; fold induction at 1 µM [4, 13]: 1.36 ± 0.08; AcTub 10 μM, fold-change compared to positive control compound 5 (100 nM) (in parentheses) ([4]; 4 h incubation, 10 μM): 1.43 fold-change; fold induction at 10 µM [4, 14]: 4.32 ± 0.28
C[C@@H](Nc1c(-c2c(F)cc(C#CCCN)cc2F)c(Cl)nc2ncnn12)C(C)(C)C [Compound 57, (R)-6-(4-(4-Aminobut-1-yn-1-yl)-2,6-difluorophenyl)-5-chloro-N-(3,3-dimethylbutan-2-yl)-[1,2,4]triazolo[1,5-a]pyrimidin-7-amine Hydrochloride] |  |  | 0.96 | 0.91 | 0.83 | 1.21 | 2.49 | 3.66 | fold induction at 1 µM [3, 11]: 0.96 ± 0.026; fold induction at 10 µM [3, 12]: 0.91 ± 0.12; AcTub 1 μM, fold-change compared to positive control compound 5 (100 nM) (in parentheses) ([4]; 4 h incubation, 1 μM): 0.83 fold-change; fold induction at 1 µM [4, 13]: 2.49 ± 0.17; AcTub 10 μM, fold-change compared to positive control compound 5 (100 nM) (in parentheses) ([4]; 4 h incubation, 10 μM): 1.21 fold-change; fold induction at 10 µM [4, 14]: 3.66 ± 0.58
CNCC#Cc1cc(F)c(-c2c(Cl)nc3ncnn3c2N[C@H](C)C(C)(C)C)c(F)c1 [Compound 59, (R)-5-Chloro-6-(2,6-difluoro-4-(3-(methylamino)prop-1-yn-1-yl)phenyl)-N-(3,3-dimethylbutan-2-yl)-[1,2,4]triazolo[1,5-a]pyrimidin-7-amine Hydrochloride] |  |  | 0.93 | 1 | 0.81 | 1.16 | 6.03 | 8.67 | fold induction at 1 µM [3, 11]: 0.93 ± 0.02; fold induction at 10 µM [3, 12]: 1 ± 0.03; AcTub 1 μM, fold-change compared to positive control compound 5 (100 nM) (in parentheses) ([4]; 4 h incubation, 1 μM): 0.81 fold-change; fold induction at 1 µM [4, 13]: 6.03 ± 0.64; AcTub 10 μM, fold-change compared to positive control compound 5 (100 nM) (in parentheses) ([4]; 4 h incubation, 10 μM): 1.16 fold-change; fold induction at 10 µM [4, 14]: 8.67 ± 0.16
CC1(CNc2c(-c3c(F)cc(F)cc3F)c(Cl)nc3ncnn23)N=N1 [Compound 61] | I | 1.08 ± 0.04 | 1.08 | 1.03 | 0.12 | 0.27 | 1.56 | 3.42 | AcTub 1 μM, fold-change compared to positive control compound 5 (100 nM) (in parentheses) [1, 5]: 0.12 fold-change; α-Tub 10 μM, fold-change compared to vehicle (DMSO)-treated cells [2]: 1.03 ± 0.04 fold-change
C[C@H](Nc1c(-c2c(F)cc(F)cc2F)c(Cl)nc2ncnn12)C1(C)N=N1 [Compound 62] | I |  | 1.07 | 0.94 | 0.13 | 0.28 | 0.84 | 1.85 | AcTub 10 μM, fold-change compared to vehicle (DMSO)-treated cells [1, 6]: 1.85 ± 0.08 fold-change; α-Tub 10 μM, fold-change compared to vehicle (DMSO)-treated cells [2]: 0.94 ± 0.02 fold-change
C[C@@H](Nc1c(-c2c(F)cc(F)cc2F)c(Cl)nc2ncnn12)C1(C)N=N1 [Compound 63] | I |  | 0.92 | 0.89 | 0.11 | 0.36 | 1.42 | 4.28 | AcTub 1 μM, fold-change compared to vehicle (DMSO)-treated cells [1, 5]: 1.42 ± 0.08 fold-change
CN(C)CCCOc1cc(F)c(-c2c(Cl)nc3ncnn3c2NCC2(C)N=N2)c(F)c1 [Compound 65] |  |  | 0.36 | 0.19 | 0.81 | 0.02 | 10.5 | 0.29 | AcTub 1 μM, fold-change compared to positive control compound 5 (100 nM) (in parentheses) [1, 5]: 0.81 fold-change; AcTub 1 μM, fold-change compared to vehicle (DMSO)-treated cells [1, 5]: 10.5 ± 0.4 fold-change; AcTub 10 μM, fold-change compared to positive control compound 5 (100 nM) (in parentheses) [1, 6]: 0.02 fold-change; α-Tub 10 μM, fold-change compared to vehicle (DMSO)-treated cells [2]: 0.19 ± 0.02 fold-change
C[C@@H](Nc1c(-c2c(F)cc(OCCCN(C)C)cc2F)c(Cl)nc2ncnn12)C1(C)N=N1 [Compound 66] |  |  | 0.73 | 1.01 | 1.68 | 0.07 | 21.7 | 0.93 | α-Tub 10 μM, fold-change compared to vehicle (DMSO)-treated cells [2]: 1.01 ± 0.05 fold-change
C[C@H](Nc1c(-c2c(F)cc(OCCCN(C)C)cc2F)c(Cl)nc2ncnn12)C1(C)N=N1 [Compound 67] |  | 0.69 ± 0.05 | 0.69 | 0.78 | 1.01 | 0.04 | 6.7 | 0.28 | AcTub 10 μM, fold-change compared to vehicle (DMSO)-treated cells [1, 6]: 0.28 ± 0.03 fold-change
